In BigSolDB 2.1:

CCCCCCCCCCCCCCCc1cccc(O)c1
Conditions	solubility (mole fraction)
in acetone, 289.08 K	0.253
in acetone, 291.32 K	0.272
in acetone, 293.55 K	0.309
in acetone, 295.54 K	0.33
in acetone, 297.54 K	0.351
in acetone, 299.33 K	0.373
in ethanol, 291.47 K	0.158
in ethanol, 293.83 K	0.181
in ethanol, 295.56 K	0.199
in ethanol, 297.55 K	0.228
in ethanol, 299.15 K	0.252
in ethanol, 301.28 K	0.278
in ethyl acetate, 290.83 K	0.236
in ethyl acetate, 295.86 K	0.299
in ethyl acetate, 297.3 K	0.323
in ethyl acetate, 300.12 K	0.352
in ethyl acetate, 302.14 K	0.38
in n-butanol, 293.55 K	0.239
in n-butanol, 295.36 K	0.263
in n-butanol, 297.33 K	0.282
in n-butanol, 299.16 K	0.302
in n-butanol, 300.86 K	0.321
in n-butanol, 302.94 K	0.349
in tetrachloromethane, 288.46 K	0.0912
in tetrachloromethane, 290.45 K	0.101
in tetrachloromethane, 292.51 K	0.124
in tetrachloromethane, 294.42 K	0.15
in tetrachloromethane, 296.55 K	0.18
in tetrachloromethane, 298.36 K	0.21
in tetrachloromethane, 300.24 K	0.242
in toluene, 295.25 K	0.122
in toluene, 297.45 K	0.14
in toluene, 299.2 K	0.16
in toluene, 301.23 K	0.186
in toluene, 303.66 K	0.228
in toluene, 305.47 K	0.262
